In ChEMBL document CHEMBL3431459, “Roche carnitine palmitoyltransferase modulator screening data (supplementary data associated with the publication CHEMBL2216752)”:
In brackets after ≈: the same amount, converted by molar mass.

Columns and labels:
[1] = target: T1, Carnitine O-palmitoyltransferase 1, muscle isoform (Homo sapiens, UniProt Q92523); assay: SUPPLEMENTARY: Inhibition of Carnitine palmitoyltransferase 1, muscle isoform; parameters: species or system Muscle tissue
T1 sequence (Q92523 whole entry): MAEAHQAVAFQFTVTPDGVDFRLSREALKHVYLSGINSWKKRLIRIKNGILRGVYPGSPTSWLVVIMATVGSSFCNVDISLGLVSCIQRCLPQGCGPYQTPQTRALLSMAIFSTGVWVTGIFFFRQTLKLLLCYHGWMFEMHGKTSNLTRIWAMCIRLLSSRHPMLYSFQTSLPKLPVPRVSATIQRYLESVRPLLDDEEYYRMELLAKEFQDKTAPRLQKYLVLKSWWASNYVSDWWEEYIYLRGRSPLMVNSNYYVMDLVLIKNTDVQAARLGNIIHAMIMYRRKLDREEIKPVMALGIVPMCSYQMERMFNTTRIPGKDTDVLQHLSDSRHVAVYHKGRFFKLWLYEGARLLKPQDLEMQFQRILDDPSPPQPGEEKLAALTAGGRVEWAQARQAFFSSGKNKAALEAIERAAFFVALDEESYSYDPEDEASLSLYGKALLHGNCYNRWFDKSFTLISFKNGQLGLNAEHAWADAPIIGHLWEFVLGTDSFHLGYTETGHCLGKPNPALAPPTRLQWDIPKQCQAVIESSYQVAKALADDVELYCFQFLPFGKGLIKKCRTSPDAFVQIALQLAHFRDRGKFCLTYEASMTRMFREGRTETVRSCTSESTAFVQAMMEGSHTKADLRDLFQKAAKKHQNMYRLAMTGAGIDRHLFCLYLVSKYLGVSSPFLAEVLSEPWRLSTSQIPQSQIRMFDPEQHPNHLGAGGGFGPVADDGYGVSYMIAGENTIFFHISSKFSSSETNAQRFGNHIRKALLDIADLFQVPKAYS

[2] = target: T2, Carnitine O-palmitoyltransferase 2, mitochondrial (Homo sapiens, UniProt P23786); assay: (§1) SUPPLEMENTARY: Inhibition of Carnitine palmitoyltransferase 2
T2 sequence (P23786 whole entry): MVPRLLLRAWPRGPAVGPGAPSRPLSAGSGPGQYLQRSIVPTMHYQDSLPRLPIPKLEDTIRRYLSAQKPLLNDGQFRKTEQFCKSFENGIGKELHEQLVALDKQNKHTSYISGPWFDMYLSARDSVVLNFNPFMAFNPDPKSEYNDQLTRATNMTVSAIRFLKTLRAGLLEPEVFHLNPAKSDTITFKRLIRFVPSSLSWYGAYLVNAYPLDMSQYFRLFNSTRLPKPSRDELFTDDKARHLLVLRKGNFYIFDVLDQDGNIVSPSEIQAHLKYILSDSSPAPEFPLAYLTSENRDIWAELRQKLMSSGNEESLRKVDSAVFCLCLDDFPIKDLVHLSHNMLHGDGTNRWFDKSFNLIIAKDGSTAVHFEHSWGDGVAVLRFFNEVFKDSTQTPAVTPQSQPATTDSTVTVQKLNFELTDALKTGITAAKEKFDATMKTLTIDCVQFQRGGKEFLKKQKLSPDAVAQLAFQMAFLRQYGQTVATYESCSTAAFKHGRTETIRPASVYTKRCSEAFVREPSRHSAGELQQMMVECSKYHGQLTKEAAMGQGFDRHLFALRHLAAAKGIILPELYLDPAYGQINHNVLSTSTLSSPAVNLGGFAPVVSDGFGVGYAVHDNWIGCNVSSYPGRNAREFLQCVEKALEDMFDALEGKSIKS

[3] = target: T3, Carnitine O-palmitoyltransferase 2, mitochondrial (Rattus norvegicus, UniProt P18886); assay: as §1
T3 sequence (P18886 whole entry): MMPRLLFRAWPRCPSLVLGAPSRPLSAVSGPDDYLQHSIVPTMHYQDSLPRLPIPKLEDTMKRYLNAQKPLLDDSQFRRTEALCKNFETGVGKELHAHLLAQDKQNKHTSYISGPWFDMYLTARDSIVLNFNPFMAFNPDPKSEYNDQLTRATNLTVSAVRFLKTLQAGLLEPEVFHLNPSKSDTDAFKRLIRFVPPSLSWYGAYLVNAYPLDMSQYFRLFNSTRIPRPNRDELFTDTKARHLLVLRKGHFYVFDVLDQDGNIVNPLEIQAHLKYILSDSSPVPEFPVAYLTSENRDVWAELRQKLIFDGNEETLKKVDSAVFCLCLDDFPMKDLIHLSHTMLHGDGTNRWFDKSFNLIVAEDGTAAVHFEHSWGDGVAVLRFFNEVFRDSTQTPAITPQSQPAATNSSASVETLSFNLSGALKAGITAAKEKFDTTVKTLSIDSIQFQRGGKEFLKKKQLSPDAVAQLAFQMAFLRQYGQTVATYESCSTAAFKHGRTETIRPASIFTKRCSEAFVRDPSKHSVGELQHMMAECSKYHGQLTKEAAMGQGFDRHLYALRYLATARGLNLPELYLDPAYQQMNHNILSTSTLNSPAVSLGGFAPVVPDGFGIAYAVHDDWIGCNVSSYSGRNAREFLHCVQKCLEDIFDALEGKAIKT

[4] = target: T4, Carnitine O-palmitoyltransferase 1, liver isoform (Homo sapiens, UniProt P50416); assay: (§2) SUPPLEMENTARY: Inhibition of Carnitine palmitoyltransferase 1, liver isoform
T4 sequence (P50416 whole entry): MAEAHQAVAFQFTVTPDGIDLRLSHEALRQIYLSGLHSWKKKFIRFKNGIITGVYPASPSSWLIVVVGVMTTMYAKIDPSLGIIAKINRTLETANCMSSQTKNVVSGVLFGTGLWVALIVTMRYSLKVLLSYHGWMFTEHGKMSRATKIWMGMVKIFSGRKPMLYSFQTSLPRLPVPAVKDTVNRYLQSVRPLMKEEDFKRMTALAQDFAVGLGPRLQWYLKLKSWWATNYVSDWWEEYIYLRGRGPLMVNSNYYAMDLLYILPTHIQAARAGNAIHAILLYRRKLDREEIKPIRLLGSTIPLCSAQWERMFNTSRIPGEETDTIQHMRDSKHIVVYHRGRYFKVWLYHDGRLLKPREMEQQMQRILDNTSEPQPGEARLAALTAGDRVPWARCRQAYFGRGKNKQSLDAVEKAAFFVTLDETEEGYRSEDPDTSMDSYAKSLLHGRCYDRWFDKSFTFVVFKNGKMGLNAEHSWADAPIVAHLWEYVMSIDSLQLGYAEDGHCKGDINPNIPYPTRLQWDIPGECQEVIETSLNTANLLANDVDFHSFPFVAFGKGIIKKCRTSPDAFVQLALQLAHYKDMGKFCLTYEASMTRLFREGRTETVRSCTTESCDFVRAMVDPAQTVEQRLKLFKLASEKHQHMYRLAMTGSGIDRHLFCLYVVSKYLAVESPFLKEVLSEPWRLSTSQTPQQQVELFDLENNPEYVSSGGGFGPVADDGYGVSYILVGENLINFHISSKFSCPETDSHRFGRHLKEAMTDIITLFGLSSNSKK

[5] = target: T5, Carnitine O-palmitoyltransferase 1, liver isoform (Rattus norvegicus, UniProt P32198); assay: as §2
T5 sequence (P32198 whole entry): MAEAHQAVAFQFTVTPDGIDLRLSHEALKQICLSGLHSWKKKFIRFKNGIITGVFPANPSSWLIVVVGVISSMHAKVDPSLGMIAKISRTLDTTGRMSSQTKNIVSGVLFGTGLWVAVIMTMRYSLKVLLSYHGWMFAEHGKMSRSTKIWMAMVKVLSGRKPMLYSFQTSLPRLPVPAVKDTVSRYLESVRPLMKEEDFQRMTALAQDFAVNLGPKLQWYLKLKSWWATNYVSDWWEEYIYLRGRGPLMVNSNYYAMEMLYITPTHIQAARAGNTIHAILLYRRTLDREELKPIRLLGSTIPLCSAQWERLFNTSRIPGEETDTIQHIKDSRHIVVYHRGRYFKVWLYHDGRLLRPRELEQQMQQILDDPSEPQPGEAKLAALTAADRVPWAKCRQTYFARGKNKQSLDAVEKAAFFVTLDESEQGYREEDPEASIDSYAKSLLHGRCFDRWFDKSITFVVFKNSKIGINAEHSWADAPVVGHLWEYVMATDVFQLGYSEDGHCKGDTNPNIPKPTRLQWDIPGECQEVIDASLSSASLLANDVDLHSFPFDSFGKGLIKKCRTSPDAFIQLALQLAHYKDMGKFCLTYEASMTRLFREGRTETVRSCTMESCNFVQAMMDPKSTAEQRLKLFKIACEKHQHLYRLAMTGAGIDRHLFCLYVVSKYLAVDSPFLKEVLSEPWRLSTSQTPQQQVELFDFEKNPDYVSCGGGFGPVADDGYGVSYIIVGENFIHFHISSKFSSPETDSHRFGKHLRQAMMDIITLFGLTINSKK

[6] = SUPPLEMENTARY: Lyophilisation Solubility Assay (LYSA); type: physicochemical; settings: read-out: Kinetic_solubility
[7] = SUPPLEMENTARY: Lipophilicity (log D) Determination by high-throughput shake-flask; type: physicochemical; settings: octanol/water
[8] = SUPPLEMENTARY: PAMPA permeability assay; type: physicochemical; settings: read-out: Permeability

Row | SMILES | IC50 [1] [nM] | IC50 [2] [nM] | IC50 [3] [nM] | IC50 [4] [nM] | IC50 [5] [nM] | solubility kinetic [6] [µg/mL] | logD [7] | Papp [8] [×10⁻⁶ cm/s]
1 | O=C(O)c1ccc(NC(=O)c2ccc3c(c2)N(S(=O)(=O)c2cccc(Cl)c2)CCS3(=O)=O)cc1 | 15500 | 5440 | 20800 | 54.2 | 39.5 | > 626 | 0.25 | 0.86
2 | CCn1c(C)nc(Cl)c1-c1noc([C@H]2CCCCN2C(=O)COc2ccccc2)n1 | > 100000 | 37300 | > 100000 | 73.8 | 164 | 24 (≈ 55.8 µM) | 3.17 | 3.98
3 | COc1ccc(Cl)cc1S(=O)(=O)N1CCc2c(C)cc(C(=O)Nc3ccc(C(=O)O)cc3)cc21 | 5460 | 326 | 345 | 77.5 | 56 | 13 (≈ 26 µM) | 2.58 | 2.01
4 | CCN(CC)C(=O)c1ccc(-c2noc([C@H]3CCCCN3C(=O)COc3ccccc3)n2)cc1 | > 100000 | 19500 | 13200 | 40.2 | 1040 | 31 (≈ 67 µM) | 3.3 | 1.49
5 | O=C(COc1ccccc1)N1CCCC[C@@H]1c1noc(C2CCCCC2)n1 | > 100000 | 47600 | > 100000 | 86.5 | 664 | < 1 | 3.31 | 0.965
6 | COc1ccc(Cl)cc1S(=O)(=O)N1CCOc2c(C)cc(C(=O)Nc3ccc(CC(=O)O)cc3)cc21 | 3650 | > 100000 | > 100000 | 272 | 206 | 502 (≈ 946 µM) | 0.68 | 2.08
7 | O=C(O)c1ccc(NC(=O)c2ccc3c(c2)N(S(=O)(=O)c2cccc(Cl)c2)CCS3)cc1 | 7330 | 1950 | 5640 | 82.2 | 43 | 20 (≈ 40.9 µM) | 1.48 | 2.81
